According to ChEMBL document CHEMBL4340509, “Synthesis and evaluation of novel GSK-3β inhibitors as multifunctional agents against Alzheimer's disease” (Eur J Med Chem, 2019):
Active and inactive are the calls of the source. No cut-off for these calls is given here.

Key:
[1] = molecular target: T1, Glycogen synthase kinase-3 beta (Homo sapiens, UniProt P49841); assay: Inhibition of GSK-3beta (unknown origin) using FAM-labeled peptide as substrate preincubated for 10 mins followed by substrate addition by caliper assay
Target sequence in this assay (P49841 whole entry): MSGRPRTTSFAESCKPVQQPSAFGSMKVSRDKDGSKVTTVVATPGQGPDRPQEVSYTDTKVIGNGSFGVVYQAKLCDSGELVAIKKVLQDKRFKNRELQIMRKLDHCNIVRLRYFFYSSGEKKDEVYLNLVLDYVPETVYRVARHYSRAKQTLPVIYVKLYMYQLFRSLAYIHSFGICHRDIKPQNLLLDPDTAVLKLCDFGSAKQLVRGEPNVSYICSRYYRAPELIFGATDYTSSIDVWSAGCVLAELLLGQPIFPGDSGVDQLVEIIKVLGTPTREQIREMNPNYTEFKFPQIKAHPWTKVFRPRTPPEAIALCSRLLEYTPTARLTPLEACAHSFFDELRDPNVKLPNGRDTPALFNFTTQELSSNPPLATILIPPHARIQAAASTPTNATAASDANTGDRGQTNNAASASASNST

[2] = Metal chelating activity assessed as compound-Al3+ complex formation at 20 uM in the presence of AlCl3 after 30 mins by UV-visible spectrophotometric analysis
[3] = Metal chelating activity assessed as compound-Mg2+ complex formation at 20 uM in the presence of MgCl2 after 30 mins by UV-visible spectrophotometric analysis
[4] = Metal chelating activity assessed as compound-Cu2+ complex formation by measuring shift in maximum absorption wavelength at 20 uM in presence of CuCl2 after 30 mins by UV-visible spectrophotometric analysis (reference value: 311 nanometer)
[5] = Metal chelating activity assessed as compound-Ca2+ complex formation at 20 uM in the presence of CaCl2 after 30 mins by UV-visible spectrophotometric analysis
[6] = Metal chelating activity assessed as compound-Zn2+ complex formation at 20 uM in presence of ZnCl2 after 30 mins by UV-visible spectrophotometric analysis
[7] = Metal chelating activity assessed as Na+-compound complex formation at 20 uM in the presence of NaCl after 30 mins by UV-vis spectrophotometric analysis
[8] = Metal chelating activity assessed as compound-Fe2+ complex formation at 20 uM in the presence of FeSO4 after 30 mins by UV-visible spectrophotometric analysis
[9] = molecular target: T1, Glycogen synthase kinase-3 beta; assay: Inhibition of GSK-3beta (unknown origin) at 1 uM using FAM-labeled peptide as substrate preincubated for 10 mins followed by substrate addition by caliper assay relative to control
Target sequence in this assay (P49841 whole entry, looked up): as the sequence (P49841 whole entry) above

[10] = Metal chelating activity assessed as K+-compound complex formation at 20 uM in the presence of KCl after 30 mins by UV-vis spectrophotometric analysis
[11] = Metal chelating activity assessed as compound-Cu2+ complex formation by measuring shift in maximum absorption wavelength at 20 uM in presence of CuCl2 after 30 mins by UV-visible spectrophotometric analysis (reference value: 338 nanometer)
[12] = Metal chelating activity assessed as compound-Cu2+ complex formation at 20 uM in presence of CuCl2 after 30 mins by UV-visible spectrophotometric analysis
[13] = molecular target: Amyloid-beta precursor protein (Homo sapiens) (UniProt P05067); assay: Disaggregation of HFIP-pretreated human amyloid beta (1 to 42) preformed fibrils at 40 uM after 24 hrs by ThT-based fluorometric method relative to control
SH-SY5Y [14] = assay: Neuroprotective activity against amyloid beta (1 to 42) (unknown origin)-induced cytotoxicity in SH-SY5Y cells assessed as cell viability at 2 uM measured after 24 hrs by MTT assay (reference value: 78%); type: functional; conditions: Homo sapiens
[15] = Metal chelating activity assessed as compound-Cu2+ complex formation by measuring shift in maximum absorption wavelength at 20 uM in presence of CuCl2 after 30 mins by UV-visible spectrophotometric analysis (reference value: 327 nanometer)
[16] = molecular target: T1, Glycogen synthase kinase-3 beta; assay: Inhibition of GSK3bbeta in human SH-SY5Y cells assessed as reduction in human amyloid beta (25 to 35) peptide-induced tau hyperphosphorylation at Ser396 residue preincubated for 1 hr followed by amyloid beta-stimulation and measured after 6 hrs by Western blot analysis; type: cell-based
Target sequence in this assay (P49841 whole entry, looked up): as the sequence (P49841 whole entry) above

SH-SY5Y [17] = assay: Neuroprotective activity against Cu2+-mediated amyloid beta (1 to 42) (unknown origin)-induced cytotoxicity in human SH-SY5Y cells assessed as increase in cell viability at 2 uM measured after 24 hrs by MTT assay; type: functional, cell-based
SH-SY5Y [18] = assay: Cytotoxicity against human SH-SY5Y cells at 2 uM in the presence of CuCl2 measured after 24 hrs by MTT assay; type: cell-based
[19] = Metal chelating activity assessed as compound-Cu2+ complex formation by measuring blue shift in maximum absorption at 20 uM in presence of CuCl2 after 30 mins by UV-visible spectrophotometric analysis (reference value: 244 nanometer)
[20] = Antioxidant activity assessed as ABTS radical scavenging activity incubated for 6 mins; type: functional
SH-SY5Y [21] = assay: Cytotoxicity against human SH-SY5Y cells measured after 24 hrs by MTT assay; type: cell-based
SH-SY5Y [22] = assay: Neuroprotective activity against H2O2-induced oxidative damage in human SH-SY5Y cells assessed as cell viability at 10 uM measured after 24 hrs by MTT assay relative to control; type: functional; conditions: read-out: Activity
PC-12 [23] = assay: Neuroprotective activity against H2O2-induced oxidative damage in rat PC12 cells assessed as cell viability at 10 uM measured after 24 hrs by MTT assay relative to control; type: functional; conditions: PC-12, 24 h, read-out: Activity
PC-12 [24] = assay: Cytotoxicity against rat PC12 cells measured after 24 hrs by MTT assay; type: cell-based; conditions: PC-12, 24 h
[25] = Potency index, ratio of trolox IC50 to test compound IC50 for ABTS radical scavenging activity; type: functional
SH-SY5Y [26] = assay: Neuroprotective activity against H2O2-induced oxidative damage in human SH-SY5Y cells assessed as increase in cell viability measured after 24 hrs by MTT assay; type: functional, cell-based
[27] = molecular target: Amyloid-beta precursor protein (Homo sapiens) (UniProt P05067); assay: Inhibition of human HFIP-pretreated amyloid beta (1 to 42) self aggregation at 40 uM after 24 hrs by ThT-based fluorometric method relative to control
[28] = molecular target: T1, Glycogen synthase kinase-3 beta; assay: Inhibition of GSK3bbeta in human SH-SY5Y cells assessed as reduction in human amyloid beta (25 to 35) peptide-induced tau hyperphosphorylation at Ser396 residue at 25 uM preincubated for 1 hr followed by amyloid beta-stimulation and measured after 6 hrs by Western blot analysis relative to control; type: cell-based
Target sequence in this assay (P49841 whole entry, looked up): as the sequence (P49841 whole entry) above

[29] = Disaggregation of Cu2+ induced human HFIP-pretreated amyloid beta (1 to 42) preformed fibrils at 40 uM measured after 24 hrs by ThT-based fluorescence assay relative to control
[30] = Metal chelating activity assessed as compound-Al3+ complex formation by measuring blue shift in maximum absorption at 20 uM in the presence of AlCl3 after 30 mins by UV-visible spectrophotometric analysis (reference value: 407 nanometer)
[31] = Inhibition of Cu2+-induced HFIP pretreated human amyloid beta (1 to 42) aggregation at 40 uM measured after 24 hrs by ThT-based fluorescence assay relative to control
[32] = Metal chelating activity assessed as inhibition of Cu(II)/ascorbate-induced ROS production by measuring fluorescence intensity at 100 uM measured at 20 secs interval for 1000 secs by fluorescence assay (reference value: 10 to 52)
[33] = molecular target: T1, Glycogen synthase kinase-3 beta; assay: Inhibition of GSK3bbeta in human SH-SY5Y cells assessed as reduction in human amyloid beta (25 to 35) peptide-induced tau hyperphosphorylation at Ser396 residue at […] preincubated for 1 hr followed by amyloid beta-stimulation and measured after 6 hrs by Western blot analysis; type: cell-based
Target sequence in this assay (P49841 whole entry, looked up): as the sequence (P49841 whole entry) above

[34] = Metal chelating activity assessed as compound-Cu2+ complex formation by measuring shift in maximum absorption wavelength at 20 uM in presence of CuCl2 after 30 mins by UV-visible spectrophotometric analysis (reference value: 326 nanometer)

Sequence of Amyloid-beta precursor protein (Homo sapiens) (P05067 whole entry): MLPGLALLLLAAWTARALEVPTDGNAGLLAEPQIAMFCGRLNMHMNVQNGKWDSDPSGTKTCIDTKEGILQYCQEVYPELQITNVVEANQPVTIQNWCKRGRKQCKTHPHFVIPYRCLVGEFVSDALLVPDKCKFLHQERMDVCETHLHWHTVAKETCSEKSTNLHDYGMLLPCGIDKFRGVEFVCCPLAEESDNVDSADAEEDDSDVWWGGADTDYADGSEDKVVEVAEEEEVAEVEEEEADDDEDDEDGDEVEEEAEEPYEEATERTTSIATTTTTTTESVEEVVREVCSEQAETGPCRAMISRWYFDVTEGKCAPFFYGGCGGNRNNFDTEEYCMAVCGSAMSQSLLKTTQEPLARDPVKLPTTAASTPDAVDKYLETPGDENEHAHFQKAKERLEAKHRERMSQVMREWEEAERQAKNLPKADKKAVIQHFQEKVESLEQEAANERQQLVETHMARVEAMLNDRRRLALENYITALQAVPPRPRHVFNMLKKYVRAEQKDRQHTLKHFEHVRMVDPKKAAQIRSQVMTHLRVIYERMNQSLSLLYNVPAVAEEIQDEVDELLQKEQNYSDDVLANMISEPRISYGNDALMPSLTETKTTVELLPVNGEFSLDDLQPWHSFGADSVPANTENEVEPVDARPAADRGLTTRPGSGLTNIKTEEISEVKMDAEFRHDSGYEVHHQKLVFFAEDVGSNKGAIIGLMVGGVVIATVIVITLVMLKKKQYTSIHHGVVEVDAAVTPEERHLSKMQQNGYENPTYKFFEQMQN

Compound: Nc1nccc(-c2cccc(F)c2)c1/N=C/c1ccnc(NC(=O)C2CC2)c1
- IC50 [1]: 0.891 µM

Compound: Nc1ncccc1NCc1ccnc(NC(=O)C2CC2)c1
- Activity [2]: inactive
- Activity [3]: inactive
- Activity [4]: 402 nm
- Activity [5]: inactive
- Activity [6]: inactive
- Activity [7]: inactive
- Activity [8]: inactive
- inhibition [9]: 33%
- Activity [10]: inactive

Compound: Nc1ncc(-c2ccc(F)cc2)cc1/N=C/c1ccnc(NC(=O)C2CC2)c1
- IC50 [1]: 0.418 µM

Compound: Nc1nccc(-c2ccc(F)cc2)c1/N=C/c1ccnc(NC(=O)C2CC2)c1
- IC50 [1]: 1.2 µM

Compound: Cc1csc(-c2cnc(N)c(NCc3ccnc(NC(=O)C4CC4)c3)c2)c1
- Activity [2]: inactive
- Activity [3]: inactive
- Activity [11]: 440 nm
- Activity [5]: inactive
- Activity [6]: inactive
- Activity [7]: inactive
- Activity [8]: inactive
- inhibition [9]: 17%
- Activity [10]: inactive

Compound: Nc1ncc(-c2ccncc2)cc1NC(=O)c1ccnc(NC(=O)C2CC2)c1
- Activity [2]: inactive
- Activity [6]: inactive
- IC50 [1]: 0.199 µM
- Activity [12]: inactive
- inhibition [9]: 99%

Compound: COc1cc(/C=C/C(=O)CC(=O)/C=C/c2ccc(O)c(OC)c2)ccc1O [CURCUMIN]
- Activity [13]: 43%
- viability at 2 µM (SH-SY5Y [14]; read-out: Activity): 88%

Compound: Cc1ccc(-c2cnc(N)c(NC(=O)c3ccnc(NC(=O)C4CC4)c3)c2)cc1
- Activity [2]: inactive
- Activity [6]: inactive
- IC50 [1]: 0.127 µM
- Activity [12]: inactive
- inhibition [9]: 99%

Compound: Nc1nccc(-c2ccccc2)c1/N=C/c1ccnc(NC(=O)C2CC2)c1
- IC50 [1]: 0.633 µM

Compound: Cc1csc(-c2cnc(N)c(NC(=O)c3ccnc(NC(=O)C4CC4)c3)c2)c1
- Activity [2]: inactive
- Activity [6]: inactive
- IC50 [1]: 0.219 µM
- Activity [12]: inactive
- inhibition [9]: 102%

Compound: Cc1ccc(-c2cnc(N)c(NCc3ccnc(NC(=O)C4CC4)c3)c2)cc1
- Activity [2]: inactive
- Activity [3]: inactive
- Activity [5]: inactive
- Activity [6]: inactive
- Activity [15]: 422 nm
- Activity [7]: inactive
- Activity [8]: inactive
- inhibition [9]: 28%
- Activity [10]: inactive

Compound: Nc1ncc(-c2ccccc2)cc1NC(=O)c1ccnc(NC(=O)C2CC2)c1
- Activity [2]: inactive
- Activity [6]: inactive
- IC50 [1]: 0.148 µM
- Activity [12]: inactive
- inhibition [9]: 98%

Compound: Nc1ncc(-c2ccncc2)cc1/N=C/c1ccnc(NC(=O)C2CC2)c1
- inhibition [16]: Dose-dependent effect
- Activity (SH-SY5Y [17]): Active
- Activity (SH-SY5Y [18]): Non-Toxic
- Activity [3]: inactive
- Activity [19]: 241 nm
- IC50 [20]: 3.44 µM
- IC50 (SH-SY5Y [21]): > 200 µM
- viability at 10 µM (SH-SY5Y [22]): 92%
- viability at 10 µM (PC-12 [23]): 76.4%
- Activity [5]: inactive
- Activity [6]: inactive
- Activity [13]: inactive
- Activity [7]: inactive
- IC50 (PC-12 [24]): 161 µM
- Ratio IC50 [25]: 2 to 4
- Activity (SH-SY5Y [26]): Dose-dependent effect
- IC50 [1]: 0.038 µM
- Activity [8]: inactive
- inhibition [27]: inactive
- inhibition [28]: < 50%
- Activity [29]: 50.9%
- Activity [30]: 378 nm
- inhibition [31]: 33.8%
- Activity (SH-SY5Y [14]): inactive
- Activity [10]: inactive
- Flu intensity [32]: 33 to 54

Compound: [Cl-].[Li+]
- inhibition [33]: Active

Compound: Nc1ncc(-c2ccc(F)cc2)cc1NC(=O)c1ccnc(NC(=O)C2CC2)c1
- Activity [2]: inactive
- Activity [6]: inactive
- IC50 [1]: 0.24 µM
- Activity [12]: inactive
- inhibition [9]: 95%

Compound: Nc1ncc(-c2ccccc2)cc1NCc1ccnc(NC(=O)C2CC2)c1
- Activity [2]: inactive
- Activity [3]: inactive
- Activity [34]: 422 nm
- Activity [5]: inactive
- Activity [6]: inactive
- Activity [7]: inactive
- Activity [8]: inactive
- inhibition [9]: 27%
- Activity [10]: inactive

Compound: Cc1ccc(-c2cnc(N)c(/N=C/c3ccnc(NC(=O)C4CC4)c3)c2)cc1
- IC50 [1]: 0.372 µM

Compound: Nc1ncccc1/N=C/c1ccnc(NC(=O)C2CC2)c1
- inhibition [16]: Dose-dependent effect
- Activity (SH-SY5Y [17]): Active
- Activity [2]: inactive
- Activity (SH-SY5Y [18]): Non-Toxic
- Activity [3]: inactive
- IC50 [20]: 3.88 µM
- IC50 (SH-SY5Y [21]): > 200 µM
- viability at 10 µM (SH-SY5Y [22]): 92.1%
- viability at 10 µM (PC-12 [23]): 72.6%
- Activity [5]: inactive
- Activity [6]: inactive
- Activity [13]: inactive
- Activity [7]: inactive
- IC50 (PC-12 [24]): 152 µM
- Ratio IC50 [25]: 2 to 4
- Activity (SH-SY5Y [26]): Dose-dependent effect
- IC50 [1]: 0.071 µM
- Activity [12]: inactive
- Activity [8]: inactive
- inhibition [27]: inactive
- inhibition [28]: < 50%
- Activity [29]: 42.5%
- inhibition [31]: 24.3%
- Activity (SH-SY5Y [14]): inactive
- Activity [10]: inactive
- Flu intensity [32]: 22 to 40

Compound: Cc1c(C)c2c(c(C)c1O)CCC(C)(C(=O)O)O2 (stereo not drawn) [TROLOX]
- IC50 [20]: 14.3 µM
- viability at 10 µM (SH-SY5Y [22]): 90%
- viability at 10 µM (PC-12 [23]): 79%

Compound: Cc1csc(-c2cnc(N)c(/N=C/c3ccnc(NC(=O)C4CC4)c3)c2)c1
- IC50 [1]: 0.315 µM

Compound: Nc1ncc(-c2ccncc2)cc1NCc1ccnc(NC(=O)C2CC2)c1
- Activity [2]: inactive
- Activity [3]: inactive
- Activity [5]: inactive
- Activity [6]: inactive
- Activity [7]: inactive
- Activity [8]: inactive
- inhibition [9]: 27%
- Activity [10]: inactive

Compound: Nc1nccc(-c2ccc(Cl)cc2)c1/N=C/c1ccnc(NC(=O)C2CC2)c1
- IC50 [1]: > 2 µM

Compound: Nc1ncccc1NC(=O)c1ccnc(NC(=O)C2CC2)c1
- Activity [2]: inactive
- Activity [6]: inactive
- IC50 [1]: 0.629 µM
- Activity [12]: inactive
- inhibition [9]: 77%

Compound: Oc1c(I)cc(Cl)c2cccnc12
- Activity (SH-SY5Y [17]): Active
- Activity [29]: 34.9%
- inhibition [31]: 38.8%

Compound: Cc1ccc(-c2ccnc(N)c2/N=C/c2ccnc(NC(=O)C3CC3)c2)cc1
- IC50 [1]: 1.25 µM
